Assay results: patent US20260297118A1, “SUBSTITUTED PYRIMIDINONE AND AZAPYRIMIDINONE COMPOUNDS, COMPOSITIONS, AND USES THEREOF” (LAKEWOOD AMEDEX, INC., priority 2023, published 2026)
Read-outs that look alike come from different tables or passages of the source.

Legend:
Assay type in all cases: cell-based
[1] = tested on: K. pneumoniae ATCC BAA-2146; test: MIC, broth microdilution, K. pneumoniae ATCC BAA-2146; set-up: unit not given beside the values; settings: K. pneumoniae ATCC BAA-2146, Gram −ve; pH 3; 18 to 24 hours
Procedure: (§1) MIC testing is conducted using the broth (Mueller Hinton Broth) microdilution procedures relevant to each organism group as established by the Clinical and Laboratory Standards Institute (CLSI; 3-7). MIC plates are prepared in accordance with CLSI (3-7). To prepare the test plates, automated liquid handlers are used to conduct serial dilutions and liquid transfers. Automated liquid handlers utilized in this study include the Multidrop 384 (Labsystems, Helsinki, Finland) and the Biomek 2000 (Beckman Coulter, Fullerton CA). The solution is diluted to desired pH using 1 M Citric Acid or 1 M NaOH buffer. A standardized inoculum of each test organism is prepared per CLSI methods (3, 5-7) to equal a 0.5 McFarland standard in the appropriate media followed by an additional 1:20 dilution (1:10 for anaerobes).
(§2) The plates are then inoculated with 10 μL of the diluted 0.5 McFarland suspension using the Biomek 2000 from low to high drug concentration, resulting in a final concentration of approximately 5×10^5 CFU/mL per well. An un-inoculated plate is incubated for the purpose of assessing solubility of the drug in the test media. The plates are stacked 3 to 4 high, covered with a sterile lid on the top plate, and incubated for 18 to 24 hours according to CLSI. The MIC is recorded as the lowest concentration of respective compound that inhibited visible growth of the organism.

[2] = tested on: S. haemolyticus ATCC-29970; test: MIC, broth microdilution, S. haemolyticus ATCC-29970; settings: S. haemolyticus ATCC-29970, Gram +ve; pH 3; 18 to 24 hours
Procedure: as §1, §2

Candida albicans (22972) = test: MIC, broth microdilution, Candida albicans (22972); settings: pH 3, Mueller Hinton Broth, 18 to 24 hours
Procedure: as §1, §2

[3] = tested on: S. dysgalactiae ATCC-6644; test: MIC, broth microdilution, S. dysgalactiae ATCC-6644; set-up: unit not given beside the values; settings: S. dysgalactiae ATCC-6644, Gram +ve; pH 3; 18 to 24 hours
Procedure: as §1, §2

S. aureus ATCC -3591 = test: MIC, broth microdilution, S. aureus ATCC -3591; set-up: unit not given beside the values; settings: S. aureus ATCC -3591, Gram +ve; pH 3; 18 to 24 hours
Procedure: as §1, §2

E. faecalis MMX-3353 = test: MIC, broth microdilution, E. faecalis MMX-3353; settings: E. faecalis MMX-3353, Gram +ve; pH 3; 18 to 24 hours
Procedure: as §1, §2

E. coli ATCC-25922 = test: MIC, broth microdilution, E. coli ATCC-25922; set-up: unit not given beside the values; settings: E. coli ATCC-25922, Gram −ve; pH 3; 18 to 24 hours
Procedure: as §1, §2

S. pyogenes ATCC-49399 = test: MIC, broth microdilution, S. pyogenes ATCC-49399; set-up: unit not given beside the values; settings: S. pyogenes ATCC-49399, Gram +ve; pH 3; 18 to 24 hours
Procedure: as §1, §2

E. faecalis ATCC-29212 = test: MIC, broth microdilution, E. faecalis ATCC-29212; set-up: unit not given beside the values; settings: E. faecalis ATCC-29212, Gram +ve; pH 3; 18 to 24 hours
Procedure: as §1, §2

A. baumannii ATCC-19606 = test: MIC, broth microdilution, A. baumannii ATCC-19606; set-up: unit not given beside the values; settings: A. baumannii ATCC-19606, Gram −ve; pH 3; 18 to 24 hours
Procedure: as §1, §2

[4] = tested on: Staphylococcus aureus (43330); test: MIC, broth microdilution, Staphylococcus aureus (43330); settings: pH 3, Mueller Hinton Broth, 18 to 24 hours
Procedure: as §1, §2

[5] = tested on: S. saprophyticus ATCC-49907; test: MIC, broth microdilution, S. saprophyticus ATCC-49907; set-up: unit not given beside the values; settings: S. saprophyticus ATCC-49907, Gram +ve; pH 3; 18 to 24 hours
Procedure: as §1, §2

Escherichia coli (25922) = test: MIC, broth microdilution, Escherichia coli (25922); settings: pH 3, Mueller Hinton Broth, 18 to 24 hours
Procedure: as §1, §2

E. coli MMX-8870 = test: MIC, broth microdilution, E. coli MMX-8870; settings: E. coli MMX-8870, Gram −ve; pH 3; 18 to 24 hours
Procedure: as §1, §2

K. pneumoniae ATCC-43816 = test: MIC, broth microdilution, K. pneumoniae ATCC-43816; set-up: unit not given beside the values; settings: K. pneumoniae ATCC-43816, Gram −ve; pH 3; 18 to 24 hours
Procedure: as §1, §2

H. influenzae ATCC-49247 = test: MIC, broth microdilution, H. influenzae ATCC-49247; set-up: unit not given beside the values; settings: H. influenzae ATCC-49247, Gram −ve; pH 3; 18 to 24 hours
Procedure: as §1, §2

S. agalactiae ATCC-13813 = test: MIC, broth microdilution, S. agalactiae ATCC-13813; set-up: unit not given beside the values; settings: S. agalactiae ATCC-13813, Gram +ve; pH 3; 18 to 24 hours
Procedure: as §1, §2

P. mirabilis CDC-0155 = test: MIC, broth microdilution, P. mirabilis CDC-0155; set-up: unit not given beside the values; settings: P. mirabilis CDC-0155, Gram −ve; pH 3; 18 to 24 hours
Procedure: as §1, §2

P. aeruginosa ATCC-27853 = test: MIC, broth microdilution, P. aeruginosa ATCC-27853; set-up: unit not given beside the values; settings: P. aeruginosa ATCC-27853, Gram −ve; pH 3; 18 to 24 hours
Procedure: as §1, §2

C. striatum ATCC-6940 = test: MIC, broth microdilution, C. striatum ATCC-6940; settings: C. striatum ATCC-6940, Gram +ve; pH 3; 18 to 24 hours
Procedure: as §1, §2

M. morganii CDC-0519 = test: MIC, broth microdilution, M. morganii CDC-0519; set-up: unit not given beside the values; settings: M. morganii CDC-0519, Gram −ve; pH 3; 18 to 24 hours
Procedure: as §1, §2

C. freundii CDC-0157 = test: MIC, broth microdilution, C. freundii CDC-0157; set-up: unit not given beside the values; settings: C. freundii CDC-0157, Gram −ve; pH 3; 18 to 24 hours
Procedure: as §1, §2

E. faecium ATCC-35667 = test: MIC, broth microdilution, E. faecium ATCC-35667; settings: E. faecium ATCC-35667, Gram +ve; pH 3; 18 to 24 hours
Procedure: as §1, §2

[6] = tested on: Pseudomonas aeruginosa (27853); test: MIC, broth microdilution, Pseudomonas aeruginosa (27853); settings: pH 3, Mueller Hinton Broth, 18 to 24 hours
Procedure: as §1, §2

E. faecium MMX-3355 = test: MIC, broth microdilution, E. faecium MMX-3355; set-up: unit not given beside the values; settings: E. faecium MMX-3355, Gram +ve; pH 3; 18 to 24 hours
Procedure: as §1, §2

S. aureus ATCC-29213 = test: MIC, broth microdilution, S. aureus ATCC-29213; set-up: unit not given beside the values; settings: S. aureus ATCC-29213, Gram +ve; pH 3; 18 to 24 hours
Procedure: as §1, §2

[7] = tested on: A. radioresistens MMX-8551; test: MIC, broth microdilution, A. radioresistens MMX-8551; set-up: unit not given beside the values; settings: A. radioresistens MMX-8551, Gram −ve; pH 3; 18 to 24 hours
Procedure: as §1, §2

E. cloacae ATCC BAA-2468 = test: MIC, broth microdilution, E. cloacae ATCC BAA-2468; set-up: unit not given beside the values; settings: E. cloacae ATCC BAA-2468, Gram −ve; pH 3; 18 to 24 hours
Procedure: as §1, §2

`CCCCOP(=O)(O)OC[C@H]1O[C@@H](n2ccc(N(C)C)nc2=O)C(F)(F)[C@@H]1O` [LAK-023, (2R,3S,5R)-5-(4-N,N-dimethylamino-2-oxopyrimidin-1(2H)-yl)-2,2-difluoro-3-hydroxytetrahydrofuranyl-2-methyl butyl phosphate] was tested, and the MIC [1] was 0.78, the MIC [2] was 0.78 and the MIC (Candida albicans (22972); read-out: MIC) was > 12.5 mg/mL. The MIC [3] was 0.78, the MIC (S. aureus ATCC -3591) was 6.25 and the MIC (E. faecalis MMX-3353) was 6.25. For the same molecule, the MIC (E. coli ATCC-25922) was 0.78, the MIC (S. pyogenes ATCC-49399) was 1.56 and the MIC (E. faecalis ATCC-29212) was 3.13. The MIC (A. baumannii ATCC-19606) was 0.78, the MIC ([4]; read-out: MIC) was 3.8 mg/mL and the MIC [5] was 1.56. It also gave an MIC (Escherichia coli (25922); read-out: MIC) of 0.8 mg/mL, an MIC (E. coli MMX-8870) of 0.78 and an MIC (K. pneumoniae ATCC-43816) of 1.56. It also gave an MIC (H. influenzae ATCC-49247) of 0.39, an MIC (S. agalactiae ATCC-13813) of 0.39 and an MIC (P. mirabilis CDC-0155) of 1.56. It also gave an MIC (P. aeruginosa ATCC-27853) of 0.39, an MIC (C. striatum ATCC-6940) of 1.56 and an MIC (M. morganii CDC-0519) of 3.13. The MIC (C. freundii CDC-0157) was 1.56, the MIC (E. faecium ATCC-35667) was 3.13 and the MIC ([6]; read-out: MIC) was 0.4 mg/mL. For the same molecule, the MIC (E. faecium MMX-3355) was 1.56, the MIC (S. aureus ATCC-29213) was 1.56 and the MIC [7] was 0.78. It also gave an MIC (E. cloacae ATCC BAA-2468) of 0.78.

Molecule `CCCCCCCCOP(=O)(O)OC[C@H]1O[C@@H](n2ccc(N)nc2=O)C[C@@H]1O` [LAI-001, ((2R,3S,5R)-5-(4-amino-2-oxopyrimidin-1(2H)-yl)-3-hydroxytetrahydrofuran-2-yl)methyl octyl hydrogen phosphate] has an MIC (Candida albicans (22972); read-out: MIC) of 20 mg/mL, an MIC ([4]; read-out: MIC) of 20 mg/mL and an MIC (Escherichia coli (25922); read-out: MIC) of 20 mg/mL. It also gave an MIC ([6]; read-out: MIC) of 20 mg/mL.

`Nc1ccn([C@H]2C[C@H](O)[C@@H](COP(=O)(O)OCCCC(F)(F)F)O2)c(=O)n1` [LAI-005, ((2R,3S,5R)-5-(4-amino-2-oxopyrimidin-1(2H)-yl)-3-hydroxytetrahydrofuran-2-yl)methyl (4,4,4-trifluorobutyl) hydrogen phosphate] gave an MIC ([4]; read-out: MIC) of 50 mg/mL, an MIC (Escherichia coli (25922); read-out: MIC) of 25 mg/mL and an MIC ([6]; read-out: MIC) of 25 mg/mL.

“(2R,3S,5R)-5-(4-amino-2-oxopyridizin-1(2H)-yl)-3-hydroxytetrahydrofuran-2-methyl butyl phosphate [LAI-011]” showed an MIC (Candida albicans (22972)) of 5 mg/mL, an MIC [4] of 25 mg/mL and an MIC (Escherichia coli (25922)) of 25 mg/mL. The MIC [6] was 5 mg/mL.
